# Patent publication US10060933B2, “Methods for diagnosis and treatment of amyotrophic lateral sclerosis based on an increased level of interaction between TDP-43 polypeptide and NF-KB P65 polypeptide” (UNIVERSITE LAVAL, priority 2011, dated 2018)
# Entries after “also recorded” stand apart in the source; their conditions may differ.
# Tests used:
# GFAP-luc/TDP-43^Wt mice = experiment: Accelerating rotarod in TDP-43^Wt transgenic mice; format: in vivo, mouse
# Protocol: (§1) To study the in vivo effect of NF-κB inhibition on disease progression, we injected TDP-43^wt; GFAP-luc double transgenic mice with 3 mg/kg body weight of WA twice a week for 10-weeks starting at 30-weeks. […] We used TDP-43^wt; GFAP-luc double transgenic mice because the reporter luciferase (luc) allowed the longitudinal and non-invasive biophotonic imaging with CCD camera of the GFAP promoter activity which is a target of activated NF-κB. To analyse the spatial and temporal dynamics of astrocytes activation/GFAP induction in TDP-43 mouse model, we performed series of live imaging experiments. […] The downregulation of GFAP promoter activity was further confirmed in these mice using GFAP immunofluorescence of spinal cord sections of TDP-43^Wt mice (both drug-treated and untreated) (FIG. 8F). […] Down-regulation of GFAP along with reduction in active p65 levels in withaferin treated mice prompted us to analyse behavioural changes in these mice. […] The withaferin treated mice also had 40% reduction in the number of partially denervated neuromuscular junction (NMJ) (FIGS. 8E&G).
# (§2) Age matched control non-transgenic animals (n=10) and in TDP-43^Wt (n=10) littermates were injected twice a week with 0.9% saline intra-peritoneally. All the behavioral and imaging experiments were conducted in a double blind manner as such the experimenter had no knowledge of the drug treatment or the genotype of animals.
# Accelerating rotarod was performed on mice at 4 rpm speed with 0.25 rpm/sec acceleration as described elsewhere^30. Mice were subjected to three trials per session and every two weeks.
# GFAP promoter activity = experiment: In vivo bioluminescence imaging of GFAP-luc in spinal cord; set-up: species or system mouse; conditions: for GFAP promoter activity / GFAP-luc expression (bioluminescence) in spinal cord: GFAP-luc/TDP-43^Wt mice, 3 mg/kg i.p. twice a week for 10 weeks from 30 weeks, 36 and 40 weeks, vs untreated, 3 mg/kg
# Protocol: as §1, §2
# As previously described^31, 32, the images were gathered using IVIS® 200 Imaging System (CaliperLSXenogen, Alameda, Calif., USA). Twenty-five minutes prior to imaging session, the mice received intraperitoneal (i.p.) injection of the luciferase substrate D-luciferine (150 mg/kg—for mice between 20 and 25 g, […] of a solution of 20 mg/ml of D-luciferine dissolved in 0.9% saline was injected) (CaliperLS-Xenogen).
# [1] = withaferin treated TDP-43 transgenic mice after cessation of treatment
smiles,measurement,setting,value
CC1=C(CO)C(=O)O[C@@H]([C@@H](C)[C@H]2CC[C@H]3[C@@H]4C[C@H]5O[C@]56[C@@H](O)C=CC(=O)[C@]6(C)[C@H]4CC[C@]23C)C1 [Withaferin A],rotarod performance,"GFAP-luc/TDP-43^Wt mice; GFAP-luc/TDP-43^Wt mice, 3 mg/kg i.p. twice a week for 10 weeks, vs untreated, 3 mg/kg",significantly better motor performance; also recorded: much better rotarod performance
same,ameliorated motor impairment compared to untreated mice,GFAP-luc/TDP-43^Wt mice; TDP-43^WT or TDP-43^G348C transgenic mice,at least 4%
same,rotarod performance after cessation of the drug treatment,GFAP-luc/TDP-43^Wt mice; [1],decrease in rotarod performance
same,GFAP promoter activity / GFAP-luc expression (bioluminescence) in spinal cord,GFAP promoter activity,Significant reduction
same,GFAP promoter activity / GFAP-luc expression (bioluminescence) in spinal cord,GFAP promoter activity; listed as WA,progressive reduction in GFAP-luc expression
same,GFAP luciferase activity after cessation of the drug treatment,GFAP promoter activity; [1],increase in GFAP luciferase activity
